Measurements: US9181255B2, “Fused heteroaromatic pyrrolidinones as SYK inhibitors” (Takeda Pharmaceutical Company Limited, priority 2009, dated 2015)

Each compound was assayed against SYK (Homo sapiens, UniProt P43405) (assay: SYK inhibition assay: SYK-mediated phosphorylation of FAM-labeled substrate (Caliper microfluidic)). Settings: read-out: SYK Inhibition (pIC50) (converted).
Type: biochemical

| Compound | IC50 [nM] |
| --- | --- |
| N[C@H]1CCCC[C@H]1Nc1cc2c(c(-c3cnn(C4CC4)c3)n1)C(=O)NC2 [Example 61] | 63.1 |
| Cc1cccc(Nc2nc(N[C@@H]3CCCC[C@@H]3N)nc3c2C(=O)NC32CC2)c1 [Example 39, 2′-((1R,2S)-2-Aminocyclohexylamino)-4′-(m-tolylamino)spiro[cyclopropane-1,7′-pyrrolo[3,4-d]pyrimidin]-5′(6′H)-one] | 3160 |
| Cc1cccc(Nc2nc(N[C@@H]3CCOC[C@@H]3N)cc3c2C(=O)NC3)c1 [Example 85, 6-((3R,4R)-3-Aminotetrahydro-2H-pyran-4-ylamino)-4-(m-tolylamino)-1H-pyrrolo[3,4-c]pyridin-3(2H)-one] | 3.98 |
| N[C@H]1CCCC[C@H]1Nc1nc(-c2csc3ccccc23)c2c(c1F)CNC2=O [Example 52, 6-((1R,2S)-2-aminocyclohexylamino)-4-(benzo[b]thiophen-3-yl)-7-fluoro-1H-pyrrolo[3,4-c]pyridin-3(2H)-one] | 63.1 |
| N[C@H]1CCCC[C@H]1Nc1cc2c(c(Nc3ccc4cn[nH]c4c3)n1)C(=O)NC2 [Example 23, 4-(1H-Indazol-6-ylamino)-6-((1R,2S)-2-aminocyclohexylamino)-1H-pyrrolo[3,4-c]pyridin-3(2H)-one] | 2 |
| Cc1cn(-c2nc(N[C@@H]3CCCC[C@@H]3N)c(F)c3c2C(=O)NC3)cn1 [Example 131, 6-((1R,2S)-2-Aminocyclohexylamino)-7-fluoro-4-(4-methyl-1H-imidazol-1-yl)-1H-pyrrolo[3,4-c]pyridin-3(2H)-one] | > 20000 |
| Cc1ncc(-c2nc(N[C@@H]3CCCC[C@@H]3N)c(F)c3c2C(=O)NC3)s1 [Example 122, 6-((1R,2S)-2-Aminocyclohexylamino)-7-fluoro-4-(2-methylthiazol-5-yl)-1H-pyrrolo[3,4-c]pyridin-3(2H)-one] | 631 |
| CC(C)n1cc(-c2nc(N[C@@H]3CCCC[C@@H]3N)c(F)c3c2C(=O)NC3)cn1 [Example 97, 6-((1R,2S)-2-Aminocyclohexylamino)-7-fluoro-4-(1-isopropyl-1H-pyrazol-4-yl)-1H-pyrrolo[3,4-c]pyridin-3(2H)-one] | 158 |
| Cc1cccc(Nc2nc(N[C@@H]3COC[C@@H]3N)cc3c2C(=O)NC3)c1 (relative stereo) [Example 58, 6-(cis-4-Aminotetrahydrofuran-3-ylamino)-4-(m-tolylamino)-1H-pyrrolo[3,4-c]pyridin-3(2H)-one] | 1580 |
| Cc1ccc(-c2nc(N[C@H](CC(C)C)C(N)=O)c(F)c3c2C(=O)NC3)s1 [Example 111, (R)-2-(7-Fluoro-4-(5-methylthiophen-2-yl)-3-oxo-2,3-dihydro-1H-pyrrolo[3,4-c]pyridin-6-ylamino)-4-methylpentanamide] | 7.94 |
| Cc1cccc(Nc2nc(CCCN)nc3c2C(=O)NC3)c1 [Example 49, 2-(3-Aminopropyl)-4-(m-tolylamino)-6,7-dihydro-5H-pyrrolo[3,4-d]pyrimidin-5-one] | > 20000 |
| CC(C)C[C@@H](Nc1nc(-c2ccoc2)c2c(c1F)CNC2=O)C(N)=O [Example 114, (R)-2-(7-Fluoro-4-(furan-3-yl)-3-oxo-2,3-dihydro-1H-pyrrolo[3,4-c]pyridin-6-ylamino)-4-methylpentanamide] | 251 |
| Cc1cccc(Nc2nc(N[C@@H]3CCCC(F)(F)[C@@H]3N)cc3c2C(=O)NC3)c1 (relative stereo) [Example 83, 6-(cis-2-Amino-3,3-difluorocyclohexylamino)-4-(m-tolylamino)-1H-pyrrolo[3,4-c]pyridin-3(2H)-one] | 251 |
| Cc1cccc(Nc2nc(N[C@@H]3CCCC[C@@H]3N)c(I)c3c2C(=O)NC3)c1 [Example 81, 6-((1R,2S)-2-Aminocyclohexylamino)-7-iodo-4-(m-tolylamino)-1H-pyrrolo[3,4-c]pyridin-3(2H)-one] | 3.16 |
| Cc1cccc(Nc2nc(-c3cnn(C)c3)nc3c2C(=O)NC3)c1 [Example 7, 2-(1-Methyl-1H-pyrazol-4-yl)-4-(m-tolylamino)-6,7-dihydro-5H-pyrrolo[3,4-c]pyrimidin-5-one] | 1000 |
| Cc1cccc(Nc2nc(N[C@H]3COCC[C@H]3N)cc3c2C(=O)NC3)c1 [Example 86, 6-((3R,4R)-4-Aminotetrahydro-2H-pyran-3-ylamino)-4-(m-tolylamino)-1H-pyrrolo[3,4-c]pyridin-3(2H)-one] | 2510 |
| CCn1cc(-c2nc(N[C@@H]3CCCC[C@@H]3N)cc3c2C(=O)NC3)cn1 [Example 59, 6-((1R,2S)-2-Aminocyclohexylamino)-4-(1-ethyl-1H-pyrazol-4-yl)-1H-pyrrolo[3,4-c]pyridin-3(2H)-one] | 79.4 |
| CC(C)C[C@@H](Nc1cc2c(c(-c3cnn(C)c3)n1)C(=O)NC2)C(N)=O [Example 36, (R)-4-Methyl-2-(4-(1-methyl-1H-pyrazol-4-yl)-3-oxo-2,3-dihydro-1H-pyrrolo[3,4-c]pyridin-6-ylamino)pentanamide] | 25.1 |
| Cn1cc(-c2nc(N[C@@H]3CCOC[C@@H]3N)cc3c2C(=O)NC3)cn1 [Example 27, 6-((3R,4R)-3-Aminotetrahydro-2H-pyran-4-ylamino)-4-(1-methyl-1H-pyrazol-4-yl)-1H-pyrrolo[3,4-c]pyridin-3(2H)-one] | 39.8 |
| Cn1ccc(-c2nc(N[C@@H]3CCCC[C@@H]3N)c(F)c3c2C(=O)NC3)n1 [Example 121] | 3980 |
| Cc1cccc(Nc2nc(N(C)CCN)nc3c2C(=O)NC3)c1 [Example 43, 2-((2-Aminoethyl)(methyl)amino)-4-(m-tolylamino)-6,7-dihydro-5H-pyrrolo[3,4-d]pyrimidin-5-one] | 5010 |
| N[C@H]1COCC[C@H]1Nc1nc(-c2cnn(C3CC3)c2)c2c(c1F)CNC2=O [Example 136, 6-((3R,4R)-3-Aminotetrahydro-2H-pyran-4-ylamino)-4-(1-cyclopropyl-1H-pyrazol-4-yl)-7-fluoro-1H-pyrrolo[3,4-c]pyridin-3(2H)-one] | 31.6 |
| N[C@H]1CCCC[C@H]1Nc1nc2c(c(-c3cnc4ccccn34)n1)C(=O)NC2 [Example 20, 2-((1R,2S)-2-Aminocyclohexylamino)-4-(imidazo[1,2-a]pyridin-3-yl)-6,7-dihydro-5H-pyrrolo[3,4-d]pyrimidin-5-one] | 200 |
| Cn1cc(-c2nc(-c3cnn(C)c3)c3c(c2F)CNC3=O)cn1 [Example 98, 7-Fluoro-4,6-bis(1-methyl-1H-pyrazol-4-yl)-1H-pyrrolo[3,4-c]pyridin-3(2H)one] | 2000 |
| N[C@H]1CCCC[C@H]1Nc1nc2c(c(-c3ccn[nH]3)n1)C(=O)NC2 [Example 48, 2-((1R,2S)-2-Aminocyclohexylamino)-4-(1H-pyrazol-5-yl)-6,7-dihydro-5H-pyrrolo[3,4-c]pyrimidin-5-one] | 794 |
| Cc1cccc(Nc2nc(N[C@H](CC(C)C)C(N)=O)cc3c2C(=O)NC3)c1 [Example 57, (R)-4-Methyl-2-(3-oxo-4-(m-tolylamino)-2,3-dihydro-1H-pyrrolo[3,4-c]pyridin-6-ylamino)pentanamide] | 15.8 |
| Cn1cc(-c2nc(N[C@@H]3CCCC(F)(F)[C@@H]3N)c(F)c3c2C(=O)NC3)cn1 (relative stereo) [Example 67, 6-(cis-2-Amino-3,3-difluorocyclohexylamino)-7-fluoro-4-(1-methyl-1H-pyrazol-4-yl)-1H-pyrrolo[3,4-c]pyridin-3(2H)-one] | 39.8 |
